In article PMC10966741, “Consensus Pharmacophore Strategy For Identifying Novel SARS-Cov-2 M^pro Inhibitors from Large Chemical Libraries” (Journal of Chemical Information and Modeling, 2024) one finds IC50 data, which are given here for three compounds.

For this assay, the target named is SARS-CoV-2 M^pro (main protease; 3CLpro) (Severe acute respiratory syndrome coronavirus 2, UniProt P0DTC1). The experiment in a line: continuous FRET cleavage assay. It is filed as biochemical.
As to `CCOc1cc(C)ccc1NC(=O)C1CC(=O)Nc2ccccc21` (stereo not drawn) [compound 4, N-(2-ethoxy-4-methylphenyl)-2-oxo-1,2,3,4-tetrahydroquinoline-4-carboxamide], the IC50 – broadly, the concentration needed to halve the response being measured – came out at 32.6 µM.

With `Cc1ccc(NC(=O)C2CC(=O)Nc3cc(F)ccc32)c(OCC(F)(F)F)c1` (stereo not drawn) [compound 1, 7-fluoro-N-[4-methyl-2-(2,2,2-trifluoroethoxy)phenyl]-2-oxo-1,2,3,4-tetrahydroquinoline-4-carboxamide], the IC50 came out at 86.6 µM.

`O=C(Nc1ccccc1-c1nc2ccccc2[nH]1)c1cc(C2CC2)[nH]n1` [compound 5, N-[2-(1H-1,3-benzodiazol-2-yl)phenyl]-5-cyclopropyl-1H-pyrazole-3-carboxamide] had a half-inhibitory concentration (IC50) of 70.5 µM.
